The values below come from ChEMBL document CHEMBL3046547, “Pyrethroid resistance in the tomato red spider mite, Tetranychus evansi, is associated with mutation of the para-type sodium channel” (2011).

Structures are written as SMILES. Converted amounts (≈) assume the structure as drawn.

What all share (type): functional
The test system of test [1] is Tetranychus urticae. Briefly: Insecticidal activity against Tetranychus urticae LS-VL (two-spotted spider mite).
Test [2] concerns Tetranychus evansi. As to the kind of experiment: Insecticidal activity against Tetranychus evansi R2 in clean French bean leaf assessed as mortality at 26 degC and 16 hr day length measured after 48 hr by microimmersion protocol.
For test [3], the system named is Tetranychus evansi. Briefly: Insecticidal activity against Tetranychus evansi R1 in clean French bean leaf assessed as mortality at 26 degC and 16 hr day length measured after 48 hr by microimmersion protocol.
The subject of test [4] is Tetranychus evansi. As to the kind of experiment: Insecticidal activity against Tetranychus evansi TOR in clean French bean leaf assessed as mortality at 26 degC and 16 hr day length measured after 48 hr by microimmersion protocol.
Test [5] concerns Tetranychus evansi. Briefly: Insecticidal activity against Tetranychus evansi ST JEA in clean French bean leaf assessed as mortality at 26 degC and 16 hr day length measured after 48 hr by microimmersion protocol.
The subject of test [6] is Tetranychus urticae. Briefly: Insecticidal activity against Tetranychus urticae (two-spotted spider mite).

In the case of `Cc1c(COC(=O)[C@@H]2[C@H](/C=C(\Cl)C(F)(F)F)C2(C)C)cccc1-c1ccccc1` (relative stereo) [BIFENTHRIN], the LC50 in test [1] came to 5.5 µg/mL (≈ 0.013 mM); in test [2], 3560 µg/mL (≈ 8.42 mM); in test [3], 1860 µg/mL (≈ 4.39 mM); in test [4], 92 µg/mL (≈ 0.218 mM); in test [5] it was 135 µg/mL (≈ 0.318 mM).

`CC[C@H](C)[C@H]1O[C@]2(C=C[C@@H]1C)C[C@@H]1C[C@@H](C/C=C(\C)[C@@H](O[C@H]3C[C@H](OC)[C@@H](O[C@H]4C[C@H](OC)[C@@H](O)[C@H](C)O4)[C@H](C)O3)[C@@H](C)/C=C/C=C3\CO[C@@H]4[C@H](O)C(C)=C[C@@H](C(=O)O1)[C@]34O)O2.CO[C@H]1C[C@H](O[C@H]2[C@H](C)O[C@@H](O[C@@H]3/C(C)=C/C[C@@H]4C[C@@H](C[C@]5(C=C[C@H](C)[C@@H](C(C)C)O5)O4)OC(=O)[C@@H]4C=C(C)[C@@H](O)[C@H]5OC/C(=C\C=C\[C@@H]3C)[C@]54O)C[C@@H]2OC)O[C@@H](C)[C@@H]1O` [ABAMECTIN]: the LC50 worked out at 0.19 µg/mL in test [2], 0.18 µg/mL in test [3], 0.24 µg/mL in test [4] and 0.23 µg/mL in test [5].

As for `CCOP(=S)(OCC)Oc1nc(Cl)c(Cl)cc1Cl` [CHLORPYRIFOS], the 50% lethal concentration (LC50) in test [6] came out at 4 µg/mL (≈ 0.0114 mM); in test [2], 4380 µg/mL (≈ 12.5 mM); in test [3] it was 3780 µg/mL (≈ 10.8 mM); in test [4], 4530 µg/mL (≈ 12.9 mM); in test [5], 3760 µg/mL (≈ 10.7 mM).

The LC50 is the concentration lethal to half of the exposed cells or organisms.
